Reference: patent US20250324983A1, “METHOD AND APPARATUS FOR CONTROLLING ARTHROPODS USING MASSOIA ESSENTIAL OIL AND RELATED PYRONES” (The United States of America, as Represented by the …, priority 2024, published 2025)

Key:
Aedes aegypti = assay: Spatial repellency, high-throughput glass tube assay; format: in vivo; conditions: concentration repelling 50% of adult female Aedes aegypti, treated filter paper in glass tube
Method: Adult female non-bloodfed Aedes aegypti that were 2-10 days post-eclosion were cold-anesthetized by placing on ice for several minutes. Each replicate consisted of 16 anesthetized females transferred to a glass tube (length 12.5 cm, outer diameter 2.5 cm) (TriKinetics Inc., Waltham, MA). Glass tubes were then enclosed on each end by netting held in place with blue caps removed from 50-mL polypropylene centrifuge tubes (Falcon™; Corning Inc., Corning, NY). Mosquitoes were allowed at least 15 min to recover from cold anesthetization. Round filter papers (diameter 2.5 cm) (Sigma-Aldrich Chemical Co., CITY, ST) were treated with 50 μL solution of compound dissolved in acetone at different concentrations. Treated filter papers were allowed to air dry for 10 min to allow for acetone evaporation, at which point filter papers were placed inside the cut ends of 50-mL polypropylene centrifuge tubes. The end caps with treated filter paper were then placed on the ends of the glass tubes, replacing the blue caps, with the netting left to prevent mosquito escape.
Glass tube bioassay setups were placed on a contrasting white background to facilitate observing and counting mosquitoes with a black line drawn to mark the center of the tube length. Control bioassays were set up with filter papers treated with 50 μL of acetone. Repellency was calculated as a repellency ratio using the formula: number of mosquitoes on the experimental treatment side/16, where a value of 0 is equal to full repellency and a value of 0.5 indicates no effect—i.e., an even distribution of mosquitoes on either side the tube midline. Data were recorded at 15 min, 30 min, and 1 hr for repellency and knockdown, as well as at 24 hr for mortality. […] Each concentration was replicated at least three times. After use, glass tubes were decontaminated by washing in soapy water and rinsed with acetone and distilled water. Treatment caps and nettings were washed using soapy water and rinsed with distilled water. Data were analyzed using a 4-parameter logistic regression in GraphPad Prism 9. The effective concentration that repelled 50% of mosquitoes (EC50) was used to compare different treatments.

Aedes albopictus = conditions: compounds identified from massoia and nutmeg essential oils; cited from earlier work
[1] = tested on: mosquitoes or biting flies; assay: Contact repellency, cloth patch test (minimum effective dose); format: in vivo; conditions: minimum effective dose on cloth
Method: The cloth patch test can be used to assess the effective repellency duration for a particular application rate of a chemical to cloth being worn on the arm of a human subject. The test allows candidate repellents to be tested without contacting the skin. The candidate substance is dissolved initially in a suitable solvent which is typically acetone; however, can be extended to ethanol or DMSO (dimethyl sulfoxide). The typical protocol for a limited quantity of substance involves dissolving up to 75 mg of the candidate repellent into 1 mL of an appropriate volatile solvent, such as acetone or ethanol, in a 2-dram vial. The choice of solvent depends upon the miscibility characteristics of the candidate repellent. A 50 cm^2 (5 cm×10 cm) clean, untreated piece of muslin cloth is rolled, placed in the vial and sealed therein to allow the cloth to saturate completely with the solution. […] Prior to the bioassay, the saturated cloth is removed and each end of the cloth is attached to a 5 cm×2.5 cm piece of cardstock paper. To each card, masking tape is attached. The card/cloth assembly is then allowed to dry for 15 min hanging from a rack by the masking tape. This time is adequate to allow complete evaporation of the solvent from the cloth.
To prepare the arm for testing, the volunteer first places a latex or nitrile glove (extended length beyond the wrist) over the hand and arm and then pulls a nylon hose stocking over the hand and arm up to a point that is past the elbow. This glove prevents mosquitoes from biting through to the hand, wrist, and part of the arm where the glove provides protection. A thick plastic sleeve with a Velcro® strip is then fastened around the arm. There is a 4 cm×8 cm window opening cut into the sleeve. Volunteers may elect to use either of the two designs of this sleeve: one has a window opening with a screen mesh, the other is completely open. The cloth card frame is then taped onto the forearm at a position overlapping the window opening of the sleeve. This allows attractive human odors to escape through the opened area of the sleeve and this small window is the only area accessible for bites. Once the cloth/card assembly is on the arm, the arm is placed inside an insect cage with mosquitoes or biting flies for one minute. Typically, the test involves 500 biting flies or mosquitoes, but can be performed at a variety of biting pressures from 200-2000 individuals, but is rarely ever performed at a pressure of greater than 2000 in a cage. […]
If a sufficient quantity of the candidate repellent is available, the minimum effective dose (MED) can be determined. […] In these cases, stoichiometric equivalents, i.e., micromolar quantities, are applied to the cloth and tested as described above. […]

[2] = tested on: Aedes aegypti mosquitoes (susceptible—Orlando strain); assay: Topical application, knockdown and mortality; conditions: in vivo
Method: Aedes aegypti mosquitoes (susceptible—Orlando strain) were reared using standard protocols at the United States Department of Agriculture, Agricultural Research Service Center for Medical, Agricultural, and Veterinary Entomology (CMAVE) in Gainesville, FL. Mosquitoes raised from pupae were aspirated from colony cages and anesthetized on ice. Mosquitoes were then treated with 0.2 μL of variable concentrations of insecticidal active ingredients using a repeating microapplicator (Hamilton Co., Reno, NV). Ten mosquitoes were used per concentration and at least three different biological cohorts were used in the analysis. Knockdown (defined as inability to fly or orient in the upright direction) was recorded at 1 hr or other time points post application (depending on the experiment), whereas mortality (defined as no movement-ataxia) was recorded at 24 hr. Concentrations that produced 10-90% mortality at 24 hr post exposure were used in the analysis to calculate the lethal dose required to kill 50% of the population (LD50). SAS 9.4 was used to calculate the LD50 values using a PROC PROBIT model with Abbott's correction to account for any control mortality.

[3] = tested on: central nervous system (CNS) of third-fourth-instar Aedes aegypti larvae; assay: Central nervous system recording of mosquito larvae; conditions: applied at 100 μM
Method: Extracellular recordings were performed on the central nervous system (CNS) of third-fourth-instar Aedes aegypti larvae as previously described in Norris et al., “Recording central neurophysiological output from mosquito larvae for neuropharmacological and insecticide resistance studies”, Journal of Insect Physiology, 135 (2021) 104319. Mosquito larvae were pinned down and dissected to expose the descending ventral nerve cord in a saline bath (157 mM NaCl, 3 mM KCl, 2 mM CaCl2), 4 mM HEPES). The ventral nerve cord was severed using a small forceps between the second and third abdominal ganglion. Descending electrical activity was monitored by drawing emanating nerve fibers from the ventral nerve cord into a suction electrode connected to an AC/DC differential amplifier (Model 3000, A-M Systems, Inc., Carlsborg, WA). Signals were subjected to window amplitude discrimination and converted into a rate plot, expressed in Hertz (Hz), using LabChart 7 Pro software (AD Instruments Inc. Colorado Springs, CO). Noise (60 Hz) was eliminated using a Hum Bug (A-M Systems, Sequim, WA,).
Electrical activity was monitored for approximately 5-10 min to establish a baseline CNS firing rate before test solutions were added to the bath in DMSO at 1 μL of solution diluted into 999 μL of saline. All concentrations of active ingredients were expressed as their final concentrations in saline. […]

With `CCCCCCCC1CCCC(=O)O1` (centres unmarked) [5-dodecanolide] the “EC50 (spatial repellency)” value (Aedes aegypti) was 77.11 μg/cm^2.
In the case of `CC1=CCC(=C(C)C)CC1` [terpinolene], the “larvicidal activity (in words)” value (Aedes albopictus) is given as “strong larvicidal activity”.
With `CCCCCc1cccc(=O)o1` [α-amyl-pyrone] the “EC50 (spatial repellency)” value (Aedes aegypti) was 6.1 μg/cm^2.
For `CCN(CC)C(=O)c1cccc(C)c1` [DEET, N,N-Diethyl-meta-toluamide], the MED [1] was 0.009 ± 0.003 ^B mg/cm^2.
For jasmolactone, the “EC50 (spatial repellency)” value (Aedes aegypti) was 60.5 μg/cm^2.
In the case of `C/C=C/C(=O)C1C(C)C=CCC1(C)C` (centres unmarked) [δ-damascone], the “EC50 (spatial repellency)” value (Aedes aegypti) is reported as 108.5 μg/cm^2.
In the case of `CCCCCCC[C@@H]1CC=CC(=O)O1` [C12 massoia lactone, C-12-massoia lactone], the “larvicidal activity (in words)” value (Aedes albopictus) is listed as “strong larvicidal activity”.
In the case of `CCCCCCCC1CCC(=O)O1` (centres unmarked) [γ-undecalactone], the “EC50 (spatial repellency)” value (Aedes aegypti) is reported as 18.32 μg/cm^2.
With `CCC(C)OC(=O)N1CCCCC1CCO` (centres unmarked) [icaridin] the MED [1] was 0.015 ± 0.004 ^B mg/cm^2.
With `CC1(C)C(C=C(Cl)Cl)C1C(=O)OCc1cccc(Oc2ccccc2)c1` (centres unmarked) [permethrin] the MED [1] was 0.100 ± 0.022 ^A mg/cm^2.
For `O=C(OCc1ccccc1)c1ccccc1` [benzyl benzoate], the “larvicidal activity (in words)” value (Aedes albopictus) is listed as “strong larvicidal activity”.
For `O=C(OCc1ccccc1)c1ccccc1O` [benzyl salicylate], the “larvicidal activity (in words)” value (Aedes albopictus) is listed as “strong larvicidal activity”.
With `CCCCN(CCC(=O)OCC)C(C)=O` [IR3535, ethyl butylacetylaminopropionate, reference compound] the “EC50 (spatial repellency)” value (Aedes aegypti) was 91.8 μg/cm^2.
For `C=C1CCC2(C(C)C)CC12` (centres unmarked) [sabinene], the “larvicidal activity (in words)” value (Aedes albopictus) is given as “strong larvicidal activity”.
For δ-undecalactone, the “EC50 (spatial repellency)” value (Aedes aegypti) was 29.5 μg/cm^2.
For `CCCCCC1CC=CC(=O)O1` (centres unmarked) [massoia lactone, 2H-pyran-2-one, 5,6-dihydro-6-pentyl-], the “Slope (LD50)” value [2] was 8.3, the “nerve block (CNS firing)” value [3] was “some nerve block” and the “EC50 (spatial repellency)” value (Aedes aegypti) was 5.9 μg/cm^2. For the same compound, the “larvicidal activity (in words)” value (Aedes albopictus) was “strong larvicidal activity” and the MED [1] was 0.007 ± 0.002 ^B mg/cm^2.
